According to patent US20190336537A1, “GENERATING ATRIAL AND VENTRICULAR CARDIOMYOCYTE LINEAGES FROM HUMAN PLURIPOTENT STEM CELLS” (UNIVERSITY HEALTH NETWORK, priority 2016, published 2019):

How the values were obtained:
[1] = tested on: HES3 NKX2-5:GFP reporter hESC line derived cardiomyocytes; test: qRT-PCR analysis of atrial and ventricular gene expression in day 20 hPSC-derived cardiomyocytes; assay type: cell-based, human; details: receptor-specific agonist added in place of RA to day 3 cultures
[2] = tested on: MSC-iPS1 induced pluripotent stem cell line derived EBs; test: Flow cytometry of ALDH activity and CD235a in MSC-iPS1-derived EBs treated with SB-431542; assay type: cell-based, human; details: SB days 3 to 5, cells induced with 4B/1A
Source text: (§1) To determine if the approach for optimizing atrial and ventricular differentiation based on ALDH activity and CD235a expression is broadly applicable, we next used it to generate these cardiomyocyte populations from the HES2 human embryonic stem cell and the MSC-iPS1 induced pluripotent stem cell lines. Titration studies identified 5B/2A and 5B/6A as optimal for atrial and ventricular inductions, respectively, for HES2 cells and 4B/4A as optimal for ventricular induction for MSCiPSC1 cells (FIGS. 7A, 7B, 7E, and 7F; Mendeley http://dx.doi.org/10.17632/7z7d5v2c3w.1). Optimization of atrial induction from the MSC-iPSC1 cells was more challenging, as all cytokine combinations promoted the development of a substantial CD235a+ population. One interpretation of these patterns is that the MSC-iPS1 cells have a high level of endogenous Nodal/Activin A signaling, resulting in the development of some CD235a+ cells under all conditions. To test this, we added the Nodal/Activin A/transforming growth factor beta (TGF-beta) inhibitor SB-431542 (SB) from days 3 to 5 to cells induced with 4B/1A.
(§2) Day 2-6 EBs were dissociated with TrypLE for 2-4 min at room temperature (RT). Day 20 EBs were dissociated by incubation in Collagenase type 2 (0.5 mg/ml, Worthington) in HANKs buffer overnight at RT followed by TrypLE treatment as described above. The following antibodies were used for staining: anti-PDGFRa-PE (R&D Systems, 3:50), anti-CD235a-APC (BD PharMingen, 1:100), antiSIRPa-PeCy7 (Biolegend, 1:1000), anti-CD90-APC (BD PharMingen, 1:1000), anticardiac isoform of CTNT (ThermoFisher Scientific, 1:2000), or anti-myosin light chain 2 (Abcam, 1:1000). For unconjugated primary antibodies, the following secondary antibodies were used for detection: goat anti-mouse IgG-APC (BD Pharmigen, 1:250), or donkey anti-rabbit IgG-PE (Jackson ImmunoResearch, 1:250). Detailed antibody information is described in Table 2.
The Aldefluor™ assay (STEMCELL Technologies) was performed according to the instruction provided by the manufacturer. […] Stained cells were analyzed as described above. […]

[3] = tested on: HES3 NKX2-5:GFP hESC-derived mesoderm; test: Specification of mesoderm populations to an atrial fate by ROH or RA (day 20 flow cytometry and qRT-PCR); assay type: cell-based, human; details: for atrial specification (MLC2V+, IRX4, KCNJ3, NR2F2): treated days 3-5
Description: To determine if the ALDH^+ cells can synthesize RA, the ALDH^+PDGFRalpha^+ and ALDH^− PDGFRalpha^+ fractions were isolated from the day 4 3B/2A-induced population, and the cells were cultured as aggregates in retinol (ROH), RA, or DMSO (control) for 24 hr (FIGS. 3A and 3B). ALDH1A2 expression segregated to the ALDH^+ fraction, confirming the validity of aldefluor-based sorting strategy for isolating RALDH2-expressing cells (FIG. 3C).
(§3) For cardiac differentiation, we used a modified version of our embryoid body (EB)-based protocol (Kattman et al., 2011). hPSC populations at 80%-90% confluence were dissociated into single cells (TrypLE, ThermoFisher) and re-aggregated to form EBs in StemPro-34 media (ThermoFisher) containing penicillin/streptomycin (1%, ThermoFisher), L-glutamine (2 mM, ThermoFisher), trans-ferrin (150 μg/ml, ROCHE), ascorbic acid (50 μg/ml, Sigma), and monothioglycerol (50 μg/ml, Sigma), ROCK inhibitor Y-27632 (10 μM, TOCRIS) and rhBMP4 (1 ng/ml, R&D) for 18 h on an orbital shaker. At day 1, the EBs were transferred to mesoderm induction media consisting of StemPro-34 with above supplements (-ROCK inhibitor Y-27632) and rhBMP4, rhActivinA (R&D) and rhbFGF (5 ng/ml, R&D) at the indicated concentrations. At day 3, the EBs were harvested, washed with IMDM and transferred to cardiac mesoderm specification media consisting of StemPro-34, the Wnt inhibitor IWP2 (1 μM, TOCRIS) and rhVEGF (10 ng/mL, R&D). At day 5, the EBs were transferred to Stem Pro-34 with rhVEGF (5 ng/ml) for another 7 days and then to Stem Pro-34 media without additional cytokines for further 8 days. At day 20, HES3-NKX2-5gfp/w-derived cardiomyocytes were analyzed and isolated based on the expression of NKX2-5:GFP and SIRPa and a lack of CD90. Cardiomyocytes generated from non-transgenic hPSC lines were analyzed and isolated as SIRPa+CD90− populations. Media was changed every 3 days. Cultures were incubated in a low oxygen environment (5% CO2, 5% O2, 90% N2) for first 12 days and a normoxic environment (5% CO2) for the following 8 days in total of 20 days. The EBs were cultured in ultra-low attachment 6-well dishes (Corning) throughout the differentiation for maintaining suspension cultures.
Following optimization, either ATRA (0.5 μM, Sigma) or retinol (2 μM, Sigma) was included in the cardiac mesoderm specification media from days 3-5 for the generation of atrial cardiomyocytes.
as §2
The Aldefluor™ assay (STEMCELL Technologies) was performed according to the instruction provided by the manufacturer. Briefly, day 2-6 EBs were dissociated as described above. […] Stained cells were analyzed as described above. […]

[4] = tested on: HES2 human embryonic stem cell derived EBs; test: ROH/RA response of HES2-derived EBs (day 20 flow cytometry and qRT-PCR); assay type: cell-based; details: treated days 3 to 5
Source text: as §1
as §3, with “The EBs were cultured in ultra-low attachment 6-well dishes (Corning) throughout the differentiation for maintaining suspension cultures.” left out

[5] = tested on: HES3 NKX2-5:GFP hESC-derived mesoderm; test: Specification of mesoderm populations to an atrial fate by ROH or RA (day 20 flow cytometry and qRT-PCR); assay type: cell-based, human; details: day 4, 5B/4A induced
[6] = tested on: MSC-iPS1 induced pluripotent stem cell line derived EBs; test: ROH/RA response of MSC-iPS1-derived EBs (day 20 flow cytometry and qRT-PCR); assay type: cell-based, human; details: treated days 3 to 5
Source text: as §1
as §3, with “The EBs were cultured in ultra-low attachment 6-well dishes (Corning) throughout the differentiation for maintaining suspension cultures.” left out

[7] = tested on: HES3 NKX2-5:GFP hESC-derived day 20 EB populations; test: Flow cytometric and immunostaining analyses of day 20 EB populations (CTNT, MLC2V, NKX2-5, COUPTFII); assay type: cell-based, human
Description: as §3, §2
For cell-surface marker analyses, cells were stained for 30 min at 4 degrees C. in FACS buffer consisting of PBS with 5% fetal calf serum (FCS) (Wisent) and 0.02% sodium azide. For intracellular staining, cells were fixed for 15 min at 4 degrees C. with 4% PFA in PBS followed by permeabilization using 90% methanol for 20 min at 4 degrees C. Cells were washed with PBS containing 0.5% BSA (Sigma) and stained with unconjugated primary antibodies in FACS buffer overnight at 4 degrees C. Stained cells were washed with PBS with 0.5% BSA and stained with secondary antibodies in FACS buffer for 1 h at 4 degrees C.
Stained cells were analyzed using the LSR II Flow cytometer (BD). For cell sorting, stained cells were kept in IMDM with 0.5% FCS and sorted using Influx (BD), FACSAriall (BD), MoFlo-XDP (BD) and FACSAria Fusion (BD) at the Sickids/UHN flow cytometry facility. Data were analyzed using FlowJo software (Tree Star).
Day 20 EBs were dissociated as described above and the cells plated onto 12 mm cover glasses (VWR) pre-coated with matrigel (25% v/v, BD). Cells were cultured for 3-5 days to enable the formation of adherent cell monolayers. Cells were fixed with
4% PFA in PBS for 10 min at room temperature and permeabilized with PBS containing 0.3% TritonX, 200 mM Glycine (Sigma) for 20 min at RT. Cells were blocked with PBS containing 10% FCS, 0.1% TritonX, and 2% BSA. […]

[8] = tested on: hPSC-derived day 2-6 EB mesoderm; test: Aldefluor assay and flow cytometry of mesoderm (ALDH activity, PDGFRalpha, CD235a); assay type: cell-based, human
Description: as §2
The Aldefluor™ assay (STEMCELL Technologies) was performed according to the instruction provided by the manufacturer. Briefly, day 2-6 EBs were dissociated as described above. Cells were stained at a concentration of 2×10^6 cells/ml in the aldefluor assay buffer containing 0.1% BSA and BAAA substrate (0.12 mg/ml) for 60 min at 37 degrees C. The aldehyde dehydrogenase inhibitor DEAB ([…]) was added to the negative control sample. Cells were washed with cold media consisting of IMDM with 5% FCS and 10% aldefluor assay buffer. Cells were then stained with antibodies to cell surface markers at the concentrations indicated above in cold wash media for additional 20 min at 4 degrees C. Stained cells were analyzed as described above. During analyses, the cells were kept in cold wash media. For cell sorting, FCS was replaced with KnockOut™ serum replacement (ThermoFisher) to avoid any impact of serum-contained cy-tokines on the cell differentiations. Cells were maintained in StemPro-34 containing 10% aldefluor assay buffer throughout the sorting procedure. The sorted cells were collected and re-aggregated in StemPro-34 containing ROCK inhibitor (10 μM), IWP2 (0.5 μM) and rhVEGF (5 ng/ml).

[9] = increasing Activin A from 2 to 12 ng/ml, BMP4 10 ng/mL
[10] = reducing Activin A, constant BMP4 (10 ng/mL)
[11] = reducing BMP4 from 10 to 3 ng/mL, Activin A 2 ng/mL

`CCCCCCCCc1ccc(-c2ccc(C(=O)O)cc2)cc1` [AC55649] was tested, and the “MYL2 expression in day 20 CTNT+ populations” value (shortened to “MYL2 expression”) [1] was “reduction”.

For `O=C(O)c1ccc2cc(-c3ccc(O)c(C45CC6CC(CC(C6)C4)C5)c3)ccc2c1` [CD437], the “MYL2 expression” value [1] was “reduction”.

With `NC(=O)c1ccc(-c2nc(-c3ccc4c(c3)OCO4)c(-c3ccccn3)[nH]2)cc1` [SB-431542] the “CD235a+ cells” value [2] was “reduction”, the “CTNT+MLC2V− cardiogenic potential of the mesoderm” value [2] was “without affecting” and the “size of the ALDH+ population” value [2] was “increase in the size”.

In the case of `CC1(C)CCC(C)(C)c2cc(C(=O)Nc3ccc(C(=O)O)cc3)ccc21` [AM580], the “MYL2 expression” value [1] is reported as “reduction”.

With `CC1=C(/C=C/C(C)=C/C=C/C(C)=C/CO)C(C)(C)CCC1` [ROH, retinol] the “atrial specification (MLC2V+, IRX4, KCNJ3, NR2F2)” value ([3]; 3B/2A-induced EBs) was “responded to ROH and generated an atrial-like cardiomyocyte population”, the “atrial specification (MLC2V+, IRX4, KCNJ3, NR2F2)” value ([3]; 5B/12A-induced EBs) was “did not respond” and the “atrial specification (MLC2V+ frequency, IRX4, KCNJ3)” value ([3]; ALDH+PDGFRalpha+ fraction, day 4, 3B/2A induced, 24 hr treatment) was “generated an atrial-like cardiomyocyte population”. For the same molecule, the “response of ALDH+ mesoderm (atrial expression profile)” value ([4]; HES2, 5B/2A induced) was “responded to both ROH and RA”, the “response of CD235a+ mesoderm (MLC2V content, MYL2, IRX4, KCNJ3, NR2F2)” value ([4]; HES2, 5B/6A induced) was “Neither CD235a+ mesoderm population responded” and the “atrial specification (MLC2V+, IRX4, NPPA, KCNJ3, NR2F2)” value ([5]; CD235a+ALDH− fraction) was “no response”. For the same molecule, the “atrial specification (MLC2V+, IRX4, NPPA, KCNJ3, NR2F2)” value ([5]; CD235a−ALDH+ fraction) was “gave rise to an atrial-like cardio-myocyte population”, the “response of ALDH+ mesoderm (atrial expression profile)” value ([6]; MSC-iPS1, 4B/1A+SB induced) was “responded to both ROH and RA” and the “response of CD235a+ mesoderm (MLC2V content, MYL2, IRX4, KCNJ3, NR2F2)” value ([6]; MSC-iPS1, 4B/4A induced) was “Neither CD235a+ mesoderm population responded”.

B1: Activin A: Recombinant human ActivinA (R&D), activates nodal signal transduction (protein, UniProt P08476 311-426, looked up)
Inhibin beta A chain: GLECDGKVNICCKKQFFVSFKDIGWNDWIIAPSGYHANYCEGECPSHIAGTSGSSLSFHSTVINHYRMRGHSPFANLKSCCVPTKLRPMSMLYYDDGQNIIKKDIQNMIVEECGCS
modifications: Inhibin beta A chain
For B1, the “proportion of MLC2V+CTNT+ cells” value [7, 9] was “increase in the proportion”, the “proportion of CTNT+ cardiomyocytes generated” value [7, 10] was “decrease” and the “ALDH+ population” value [8, 9] was “elimination”. The “size of the day 4 CD235a+ population” value [8, 9] was “increase in the size” and the “size of the ALDH+PDGFRalpha+ population at day 4” value [8, 10] was “substantial increase”.

B2: BMP4: Bone Morphogenetic Protein 4, recombinant human (R&D) (protein, UniProt P12644 293-408, looked up)
Bone morphogenetic protein 4: SPKHHSQRARKKNKNCRRHSLYVDFSDVGWNDWIVAPPGYQAFYCHGDCPFPLADHLNSTNHAIVQTLVNSVNSSIPKACCVPTELSAISMLYLDEYDKVVLKNYQEMVVEGCGCR
B2 was tested, and the “frequency of MLC2V+CTNT+ cells at day 20” value ([7]; BMP4 20 ng/mL, Activin A 12 ng/mL) was “lowest frequency”, the “frequency of CTNT+ cells at day 20” value [7, 11] was “increase the frequency” and the “size of the CD235a+ population” value ([8]; BMP4 3-20 ng/mL, Activin A 12 ng/mL) was “little impact”. The “size of the ALDH+PDGFRalpha+ population” value [8, 11] was “did not influence”.
